The supplement of paper PMC10627819

What was measured:
B. subtilis 168 [1] = experiment: Bliss interaction score (quartile over a dose matrix) (fitness difference); higher = more antagonism (negative = synergy)
Procedure, shortened: (§1)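 OD595 was read at entry into stationary phase and expressed relative to the robust mean of the no-drug wells on the same plate, capped at 1. The resulting ratio is the fitness value. The Bliss score, observed fitness minus product-based expected fitness with single-drug fitness inferred from combinations, is summarised by quartiles over technical, biological and donor/recipient replicates.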

S. aureus Newman [2] = experiment: as above
Procedure, shortened: as §1

S. aureus DSM 20231 [3] = experiment: as above
Procedure, shortened: as §1

S. pneumoniae D39V [4] = experiment: as above
Procedure, shortened: as §1

B. subtilis 168 [5] = experiment: fitness (endpoint OD595 vs no drug) (fraction); higher = more growth
Procedure, shortened: (§2)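 At 37 °C, bacteria in TSB, LB Lennox or CY were grown in 384-well plates from a starting OD595 of 0.01. OD595 was measured every 30 min for 14 h, with the first reading used as background. Fitness is the optical density at the switch to stationary phase as a fraction of the robust mean of no-drug control wells, capped at 1.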

S. aureus Newman [6] = experiment: as above
Procedure, shortened: as §2

S. aureus DSM 20231 [7] = experiment: as above
Procedure, shortened: as §2

S. pneumoniae D39V [8] = experiment: as above
Procedure, shortened: as §2
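Throughout, for Bliss interaction score (quartile over a dose matrix): first quartile when negative (synergy) and third quartile when positive (antagonism).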

COc1cccc2c1C(=O)c1c(O)c3c(c(O)c1C2=O)C[C@@](O)(C(=O)CO)C[C@@H]3O[C@H]1C[C@H](N)[C@H](O)[C@H](C)O1 [Doxorubicin] + CN[C@@H]1[C@H](O)[C@H](NC)[C@H]2O[C@@]3(O)C(=O)C[C@@H](C)O[C@H]3O[C@@H]2[C@H]1O [Spectinomycin]
Details | Bliss interaction score
B. subtilis 168 [1] | 0.0605
S. aureus DSM 20231 [3] | -0.0571
S. aureus Newman [2] | -0.0787
S. pneumoniae D39V [4] | 0.0399

fitness
Details | first compound 0.25 µg/mL | first compound 0.5 µg/mL | first compound 0.625 µg/mL | first compound 1 µg/mL | first compound 1.25 µg/mL | first compound 2.5 µg/mL
B. subtilis 168 [5], partner 2 µg/mL | – | – | 0.919 | – | 0.905 | 0.62
B. subtilis 168 [5], partner 4 µg/mL | – | – | 0.965 | – | 0.954 | 0.594
B. subtilis 168 [5], partner 8 µg/mL | – | – | 0.817 | – | 0.88 | 0.615
S. aureus DSM 20231 [7], partner 4 µg/mL | – | – | 0.901 | – | 0.846 | 0.808
S. aureus DSM 20231 [7], partner 8 µg/mL | – | – | 0.882 | – | 0.89 | 0.84
S. aureus DSM 20231 [7], partner 16 µg/mL | – | – | 0.789 | – | 0.824 | 0.736
S. aureus Newman [6], partner 4 µg/mL | – | – | 0.796 | – | 0.754 | 0.71
S. aureus Newman [6], partner 8 µg/mL | – | – | 0.797 | – | 0.762 | 0.681
S. aureus Newman [6], partner 16 µg/mL | – | – | 0.713 | – | 0.623 | 0.577
S. pneumoniae D39V [8], partner 4 µg/mL | 0.908 | 0.938 | – | 0.921 | – | –
S. pneumoniae D39V [8], partner 8 µg/mL | 0.827 | 0.862 | – | 0.838 | – | –
S. pneumoniae D39V [8], partner 16 µg/mL | 0.686 | 0.661 | – | 0.632 | – | –

fitness, one replicate
Details | first compound 0.625 µg/mL | first compound 1.25 µg/mL | first compound 2.5 µg/mL
S. aureus DSM 20231 [7], partner 32 µg/mL | 0.768 | 0.732 | 0.624
S. aureus DSM 20231 [7], partner 64 µg/mL | 0.0549 | 0.0594 | 0.0266
S. aureus Newman [6], partner 32 µg/mL | 0.549 | 0.394 | 0.215
S. aureus Newman [6], partner 64 µg/mL | 0.0592 | 0.0432 | 0.0224
